These results are taken from patent publication US10899754B2, “Modulators of indoleamine 2,3-dioxygenase” (GLAXOSMITHKLINE INTELLECTUAL PROPERTY DEVELOPMENT LIMITED, priority 2016, dated 2021).

In data set [1] the test system is human epithelial HeLa cells. Description: HeLa cytotoxicity assay (CellTiter-Glo). The class given is cell-based. As to conditions: pCC50. On the procedure:
(§1) Compounds of the present invention were tested via high-throughput cellular assays utilizing detection of kynurenine via mass spectrometry and cytotoxicity as end-points. For the mass spectrometry and cytotoxicity assays, human epithelial HeLa cells (CCL-2; ATCC®, Manassas, Va.) were stimulated with human interferon-γ (IFN-γ) (Sigma-Aldrich Corporation, St. Louis, Mo.) to induce the expression of indoleamine 2, 3-dioxygenase (IDO1). Compounds with IDO1 inhibitory properties decreased the amount of kynurenine produced by the cells via the tryptophan catabolic pathway. Cellular toxicity due to the effect of compound treatment was measured using CellTiter-Glo® reagent (CTG) (Promega Corporation, Madison, Wis.), which is based on luminescent detection of ATP, an indicator of metabolically active cells.
(§2) In preparation for the assays, test compounds were serially diluted 3-fold in DMSO from a typical top concentration of 1 mM or 5 mM and plated at 0.5 μL in 384-well, polystyrene, clear bottom, tissue culture treated plates with lids (Greiner Bio-One, Kremsmünster, Austria) to generate 11-point dose response curves. Low control wells (0% kynurenine or 100% cytotoxicity) contained either 0.5 μL of DMSO in the presence of unstimulated (−IFN-γ) HeLa cells for the mass spectrometry assay or 0.5 μL of DMSO in the absence of cells for the cytotoxicity assay, and high control wells (100% kynurenine or 0% cytotoxicity) contained 0.5 μL of DMSO in the presence of stimulated (+IFN-γ) HeLa cells for both the mass spectrometry and cytotoxicity assays.
(§3) Frozen stocks of HeLa cells were washed and recovered in DMEM high glucose medium with HEPES (Thermo Fisher Scientific, Inc., Waltham, Mass.) supplemented with 10% v/v certified fetal bovine serum (FBS) (Thermo Fisher Scientific, Inc., Waltham, Mass.), and 1× penicillin-streptomycin antibiotic solution (Thermo Fisher Scientific, Inc., Waltham, Mass.). The cells were diluted to 100,000 cells/mL in the supplemented DMEM medium. 50 μL of either the cell suspension, for the mass spectrometry assay, or medium alone, for the cytotoxicity assay, were added to the low control wells, on the previously prepared 384-well compound plates, resulting in 5,000 cells/well or 0 cells/well respectively. IFN-γ was added to the remaining cell suspension at a final concentration of 10 nM, and 50 μL of the stimulated cells were added to all remaining wells on the 384-well compound plates. The plates, with lids, were then placed in a 37° C., 5% CO2 humidified incubator for 2 days.
(§4) Following incubation, the 384-well plates were removed from the incubator and allowed to equilibrate to room temperature for 30 minutes. For the cytotoxicity assay, CellTiter-Glo® was prepared according to the manufacturer's instructions, and 10 μL were added to each plate well. After a twenty minute incubation at room temperature, luminescence was read on an EnVision® Multilabel Reader (PerkinElmer Inc., Waltham, Mass.). For the mass spectrometry assay, 10 μL of supernatant from each well of the compound-treated plates were added to 40 μL of acetonitrile, containing 10 μM of an internal standard for normalization, in 384-well, polypropylene, V-bottom plates (Greiner Bio-One, Kremsmünster, Austria) to extract the organic analytes. Following centrifugation at 2000 rpm for 10 minutes, 10 μL from each well of the acetonitrile extraction plates were added to 90 μL of sterile, distilled H2O in 384-well, polypropylene, V-bottom plates for analysis of kynurenine and the internal standard on the RapidFire 300 (Agilent Technologies, Santa Clara, Calif.) and 4000 QTRAP MS (SCIEX, Framingham, Mass.). MS data were integrated using Agilent Technologies' RapidFire Integrator software, and data were normalized for analysis as a ratio of kynurenine to the internal standard. […]
In general terms: ATP-based viability assays read luminescence as a measure of living cells.

Data set [2] addresses indoleamine 2, 3-dioxygenase (IDO1) (Homo sapiens, UniProt P14902). Description: IDO1 HeLa RapidFire MS assay (kynurenine detection by mass spectrometry). The class given is cell-based. The arrangement: to induce the expression of indoleamine 2, 3-dioxygenase (IDO1). As to conditions: HeLa cells, pIC50, read-out: IDO1_HELA_PXC50 (converted). On the procedure:
IDO1 HeLa RapidFire MS Assay
as §1, §2, §3, §4

indoleamine 2, 3-dioxygenase (IDO1), sequence (P14902 whole entry): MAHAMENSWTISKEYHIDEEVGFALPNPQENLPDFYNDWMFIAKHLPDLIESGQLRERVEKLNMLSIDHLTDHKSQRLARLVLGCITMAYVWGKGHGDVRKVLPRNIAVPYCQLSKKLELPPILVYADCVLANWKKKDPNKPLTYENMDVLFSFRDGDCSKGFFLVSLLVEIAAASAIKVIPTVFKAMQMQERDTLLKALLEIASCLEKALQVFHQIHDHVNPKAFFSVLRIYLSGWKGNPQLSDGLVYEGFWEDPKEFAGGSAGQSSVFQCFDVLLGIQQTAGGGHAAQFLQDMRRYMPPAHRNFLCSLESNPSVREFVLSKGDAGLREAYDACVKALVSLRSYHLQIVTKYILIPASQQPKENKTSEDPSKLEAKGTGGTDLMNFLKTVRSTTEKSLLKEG

On to `CC(C)CN(c1ccc(-c2ccccc2C(=O)O)cc1Nc1nc(C(F)(F)F)ns1)C1CCN(CCO)CC1` [example 271, 4′-{[1-(2-hydroxyethyl)piperidin-4-yl](2-methylpropyl)amino}-3′-{[3-(trifluoromethyl)-1,2,4-thiadiazol-5-yl]amino}-[1,1′-biphenyl]-2-carboxylic acid], for which the HELA_IDO1_TOX_PXC50 in data set [1] was less than 5. Also, the IC50 in data set [2] was 6310 nM.
`CC(C)CN(c1ccc(C(C)CC(=O)O)cc1NC1CCNC1)C1CCCCC1` (stereo not drawn) [example 136, 3-{4-[cyclohexyl(2-methylpropyl)amino]-3-[(pyrrolidin-3-yl)amino]phenyl}butanoic acid] showed an HELA_IDO1_TOX_PXC50 in data set [1] of 5.1. For the same compound, the IC50 in data set [2] is 3160 nM.
The like results for `CC(C)CN(c1ccc(C(C)OCC(=O)O)cc1Nc1ccc(C(N)=O)cn1)C1CCCCC1` (stereo not drawn) [example 201, 2-(1-{3-[(5-carbamoylpyridin-2-yl)amino]-4-[cyclohexyl(2-methylpropyl)amino]phenyl}ethoxy)acetic acid] were, in that order, less than 5 and greater than 10000 nM.
The like results for `CC(C)CN(c1ccc(-c2cccnc2C(=O)O)cc1Nc1nc(Cl)ns1)C1CCOCC1` [example 270, 3-{3-[(3-chloro-1,2,4-thiadiazol-5-yl)amino]-4-[(2-methylpropyl)(oxan-4-yl)amino]phenyl}pyridine-2-carboxylic acid] were, in that order, less than 5 and 1580 nM.
In turn, `CC(C)CN(CC(C)C)c1ccc(C(C)CC(=O)O)cc1Nc1ccsc1` (stereo not drawn) [example 143, 3-{4-[bis(2-methylpropyl)amino]-3-[(thiophen-3-yl)amino]phenyl}butanoic acid] had an HELA_IDO1_TOX_PXC50 in data set [1] of less than 5. For the same compound, the IC50 in data set [2] is 316 nM.
On to `CC(=O)Nc1ccc(Nc2cc(C(C)CC(=O)O)ccc2N(CC(C)C)CC(C)C)nc1` (stereo not drawn) [example 199, 3-{4-[bis(2-methylpropyl)amino]-3-[(5-acetamidopyridin-2-yl)amino]phenyl}butanoic acid], for which the HELA_IDO1_TOX_PXC50 in data set [1] is listed as less than 5. Moreover, in data set [2], the IC50 is 6310 nM.
Regarding `CC(C)CN(c1ccc(C(C)CC(=O)O)cc1NC1COC1)C1CCCCC1` (stereo not drawn) [example 129, 3-{4-[cyclohexyl(2-methylpropyl)amino]-3-[(oxetan-3-yl)amino]phenyl}butanoic acid], in data set [1], the HELA_IDO1_TOX_PXC50 was less than 4.3. For the same compound, the IC50 in data set [2] was 1580 nM.
Compound `CC(C)CN(CC(C)C)c1ccc(-c2ccccc2C(=O)O)cc1Nc1ccn(C)n1` [example 280, 4′-[bis(2-methylpropyl)amino]-3′-[(1-methyl-1H-pyrazol-3-yl)amino]-[1,1′-biphenyl]-2-carboxylic acid] displayed an HELA_IDO1_TOX_PXC50 in data set [1] of less than 5. In addition, the IC50 in data set [2] was 2510 nM.
For `CC(C)CN(c1ccc([C@H](C)CC(=O)O)cc1NC(C)C)C1CCCCC1` [example 180, (3R)-3-{4-[cyclohexyl(2-methylpropyl)amino]-3-[(propan-2-yl)amino]phenyl}butanoic acid], the HELA_IDO1_TOX_PXC50 in data set [1] is listed as less than 5. For the same compound, the IC50 in data set [2] is 3980 nM.
`CC(C)CN(c1ccc(-c2ccncc2C(=O)O)cc1Nc1nc2ccccc2o1)C1CCCCC1` [example 281, 4-{3-[(1,3-benzoxazol-2-yl)amino]-4-[cyclohexyl(2-methylpropyl)amino]phenyl}pyridine-3-carboxylic acid] registered an HELA_IDO1_TOX_PXC50 in data set [1] of less than 5. Besides, the IC50 in data set [2] was 100 nM.
`CC(C)CN(c1ccc(-c2ccccc2C(=O)NS(C)(=O)=O)cc1Nc1nc(C(F)(F)F)ns1)C1CCCCC1` [example 282, 4′-[cyclohexyl(2-methylpropyl)amino]-N-methanesulfonyl-3-′ {[3-(trifluoromethyl)-1,2,4-thiadiazol-5-yl]amino}-[1,1′-biphenyl]-2-carboxamide] came in with an HELA_IDO1_TOX_PXC50 in data set [1] of less than 5. In data set [2], the IC50 is 50.1 nM.
The compound `CC(C)CN(c1ccc(C(C)CC(=O)O)cc1NC1CCS(=O)(=O)CC1)C1CCCCC1` (stereo not drawn) [example 134, 3-{4-[cyclohexyl(2-methylpropyl)amino]-3-[(1,1-dioxo-1λ^6-thian-4-yl)amino]phenyl}butanoic acid] came in with an HELA_IDO1_TOX_PXC50 in data set [1] of less than 5. Moreover, the IC50 in data set [2] is 3160 nM.
In turn, `CC(C)CN(CC(C)C)c1ccc(C(C)CC(=O)O)cc1Nc1ccc(CO)cn1` (stereo not drawn) [example 194, 3-{4-[bis(2-methylpropyl)amino]-3-{[5-(hydroxymethyl)pyridin-2-yl]amino}phenyl}butanoic acid] yielded an HELA_IDO1_TOX_PXC50 in data set [1] of less than 5. For the same compound, the IC50 in data set [2] is 200 nM.
For `CC(C)CN(c1ccc(-c2ccccc2C(=O)O)cc1Nc1nc(C(F)(F)F)ns1)C1CCNCC1` [example 272, 4′-[(2-methylpropyl)(piperidin-4-yl)amino]-3′-{[3-(trifluoromethyl)-1,2,4-thiadiazol-5-yl]amino}-[1,1′-biphenyl]-2-carboxylic acid], in data set [1], the HELA_IDO1_TOX_PXC50 was less than 5. In data set [2], the IC50 was 5010 nM.
The like results for `CC(C)CN(CC(C)C)c1ccc(C(C)CC(=O)O)cc1Nc1nncs1` (stereo not drawn) [example 196, 3-{4-[bis(2-methylpropyl)amino]-3-[(1,3,4-thiadiazol-2-yl)amino]phenyl}butanoic acid] were, in that order, less than 5 and 158 nM.
Take `COCc1ncc(Nc2cc(C(C)CC(=O)O)ccc2N(CC(C)C)CC(C)C)o1` (stereo not drawn) [example 191, 3-{4-[bis(2-methylpropyl)amino]-3-{[2-(methoxymethyl)-1,3-oxazol-5-yl]amino]phenyl}butanoic acid]: in data set [1], the HELA_IDO1_TOX_PXC50 was less than 5. In data set [2], the IC50 was 2000 nM.
`CC(C)CN(c1ccc(C(C)CC(=O)O)cc1NC1CCN(C)C1)C1CCCCC1` (stereo not drawn) [example 144, 3-{4-[cyclohexyl(2-methylpropyl)amino]-3-[(1-methylpyrrolidin-3-yl)amino]phenyl}butanoic acid]: the HELA_IDO1_TOX_PXC50 in data set [1] is reported as less than 5. Also, the IC50 in data set [2] was 3160 nM.
Regarding `CC(C)CN(c1ccc(C(C)CC(=O)O)cc1NC1=N[C@@H](c2ccccc2)CS1)C1CCCCC1` (stereo partly drawn) [example 149, 3-{4-[cyclohexyl(2-methylpropyl)amino]-3-{[(4S)-4-phenyl-4,5-dihydro-1,3-thiazol-2-yl]amino}phenyl}butanoic acid], the HELA_IDO1_TOX_PXC50 in data set [1] is given as less than 5. The IC50 in data set [2] was 794 nM.
For `CC(C)CN(c1ccc([C@H](C)CC(=O)O)cc1NC1CCC(C)(C)CC1)C1CCCCC1` [example 182, (3R)-3-{4-[cyclohexyl(2-methylpropyl)amino]-3-[(4,4-dimethylcyclohexyl)ami-no]phenyl}butanoic acid], in data set [1], the HELA_IDO1_TOX_PXC50 is recorded as less than 5. Besides, the IC50 in data set [2] was 5010 nM.
The compound `CC(C)CN(c1ccc(-c2cccnc2C(=O)O)cc1Nc1nc2ccccc2[nH]1)C1CCCCC1` [example 278, 3-{3-[(1H-1,3-benzodiazol-2-yl)amino]-4-[cyclohexyl(2-methylpropyl)amino]phenyl}pyridine-2-carboxylic acid] came in with an HELA_IDO1_TOX_PXC50 in data set [1] of less than 5. The IC50 in data set [2] is 50.1 nM.
As for `CC(C)CN(CC(C)C)c1ccc(C(C)CC(=O)O)cc1Nc1nnc(NS(C)(=O)=O)s1` (stereo not drawn) [example 192, 3-{4-[bis(2-methylpropyl)amino]-3-[(5-methanesulfonamido-1,3,4-thiadiazol-2-yl)amino]phenyl}butanoic acid], the HELA_IDO1_TOX_PXC50 in data set [1] was less than 5. Further, the IC50 in data set [2] was 5010 nM.
